Numbering of substitutions follows the chain as printed. Values joined by “and” are separate entries in the source; they are usually repeats but may differ in a detail not shown here. Equal entries are not always repeated.
Key:
Test in all cases: filter binding assay of [14C] N-AS to COX2
Conditions in all cases: replicates
COX2 S565A = target: T1, COX2 S565A (Homo sapiens, UniProt P35354, S565A)
T1 construct: His (N); made in house
T1 sequence (P35354 18-604 S565A): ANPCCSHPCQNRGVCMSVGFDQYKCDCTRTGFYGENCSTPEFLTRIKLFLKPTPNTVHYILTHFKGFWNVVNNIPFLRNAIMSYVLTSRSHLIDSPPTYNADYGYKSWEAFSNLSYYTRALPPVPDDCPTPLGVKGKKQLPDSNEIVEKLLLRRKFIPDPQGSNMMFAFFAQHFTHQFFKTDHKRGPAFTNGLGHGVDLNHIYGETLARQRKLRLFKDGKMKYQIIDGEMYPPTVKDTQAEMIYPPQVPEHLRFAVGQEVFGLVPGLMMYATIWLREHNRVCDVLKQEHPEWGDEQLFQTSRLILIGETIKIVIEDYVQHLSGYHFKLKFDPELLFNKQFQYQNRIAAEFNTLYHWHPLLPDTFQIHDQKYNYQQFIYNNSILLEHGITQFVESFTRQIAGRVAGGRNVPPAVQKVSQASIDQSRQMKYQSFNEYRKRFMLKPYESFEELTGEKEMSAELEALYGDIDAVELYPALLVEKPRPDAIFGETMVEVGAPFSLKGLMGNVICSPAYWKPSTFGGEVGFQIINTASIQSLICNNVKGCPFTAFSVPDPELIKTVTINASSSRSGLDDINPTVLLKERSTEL
Text: (§1) Single point mutations in SphK1 (R56A, R57A, R24A, R185A, D178A, and F192A) and COX2 (S565A, N181A, T564A, and S567A) were generated using the In-Fusion Cloning Kits (Clontech) and ORF cDNA expression plasmids of human SphK1 and COX2 gene (Sino Biological Inc, HG15679-NH and HG12036-NH), according to the manufacturer’s instructions. The forward and reverse primers described in Supplementary Table 4. The SphK1 WT, SphK1 mutants, COX2 WT, and COX2 mutant plasmids were transformed in the One shot TOP 10 competent cell (Invitrogen). The bacteria were grown in Luria-Bertani (LB, Invitrogen) plates supplemented with 50 μg ml^−1 kanamycin (Sigma-Aldrich) at 37 °C. The bacterial cell pellets were resuspended in lysis buffer containing 20 mM sodium phosphate (GE Healthcare), 500 mM NaCl (GE Healthcare), 20 mM imidazole (pH 7.4) (GE Healthcare), 0.2 mg ml^−1 lysozyme (Sigma-Aldrich), 20 μg ml^−1 DNase I (Roche), 1 mM MgCl2 (Sigma-Aldrich), and 1 mM PMSF (Sigma-Aldrich) before being lysed by sonication and clarified by centrifugation at 15,493×g for 10 min. Proteins were purified from the soluble fraction using His-Spin Trap columns (GE Healthcare) and the binding and acetylation assays were performed.
(§2) Briefly, SphK1 WT and mutant enzymes (1 mU) were resuspended in 100 μl reaction buffer (20 mM HEPES; pH 7.4, 50 mM NaCl, 10 mM MgCl2, 1 mM EGTA, 0.02% Triton-X100, and 100 μM sphingosine, all from Sigma-Aldrich). […] Briefly, COX2 WT and mutant enzymes (1 mU) were resuspended in 100 μl reaction buffer (20 mM HEPES; pH 7.4, 50 mM NaCl, 10 mM MgCl2, 1 mM EGTA, and 0.02% Triton-X100, all from Sigma-Aldrich). Reactions were initiated by adding [^14C] N-AS (1–200 μM (0.1–20 μCi), ARC UK Ltd, ARC-1024) and incubated at 37 °C for 1 h. The reactions were terminated by adding 100 μl of ice-cold reaction buffer containing 5 mM cold N-AS and immediately filtered through P30 filtermat (Perkin-Elmer), followed by five washes.
(§3) The binding velocity was plotted and the Kcat and KM values were calculated from the Michaelis-Menten analysis using the Sigma-plot program (ver 10.0, Systat software Inc.).

COX2 S567A = target: T2, COX2 S567A (Homo sapiens, UniProt P35354, S567A)
T2 construct: His (N); made in house
T2 sequence (P35354 18-604 S567A): T1 sequence (P35354 18-604 S565A) with A548S, S550A
Text: as §1, §2, §3

COX2 T564A = target: T3, COX2 T564A (Homo sapiens, UniProt P35354, T564A)
T3 construct: His (N); made in house
T3 sequence (P35354 18-604 T564A): T1 sequence (P35354 18-604 S565A) with T547A, A548S
Text: as §1, §2, §3

- binding velocity (Vbinding) (COX2 S567A; 1 uM): 1.046 nM/min
SMILES: CCCCCCCCCCCCC/C=C/[C@@H](O)[C@H](CO)NC(C)=O [N-AS, N-((2S,3R,E)-1,3-Dihydroxyoctadec-4-en-2-yl)acetamide]
- binding velocity (Vbinding) (COX2 S565A; 1 uM): 0.294 nM/min and 0.145 nM/min and 0.375 nM/min
- binding velocity (Vbinding) (COX2 S565A; 5 uM): 4.092 nM/min and 3.850 nM/min and 4.567 nM/min
- binding velocity (Vbinding) (COX2 S565A; 10 uM): 6.171 nM/min and 6.000 nM/min and 6.819 nM/min
- binding velocity (Vbinding) (COX2 S565A; 20 uM): 11.138 nM/min and 12.964 nM/min and 8.904 nM/min
- binding velocity (Vbinding) (COX2 S565A; 100 uM): 19.545 nM/min and 19.934 nM/min and 20.173 nM/min
- binding velocity (Vbinding) (COX2 S565A; 200 uM): 28.985 nM/min and 29.725 nM/min and 29.810 nM/min
- binding velocity (Vbinding) (COX2 S567A; 0.2 uM): 0.844 nM/min and 0.872 nM/min and 0.519 nM/min
- binding velocity (Vbinding) (COX2 T564A; 1 uM): 0.251 nM/min and 0.379 nM/min and 0.622 nM/min
- binding velocity (Vbinding) (COX2 T564A; 5 uM): 7.230 nM/min and 6.808 nM/min and 11.168 nM/min
- binding velocity (Vbinding) (COX2 T564A; 10 uM): 7.378 nM/min and 8.069 nM/min and 9.338 nM/min
- binding velocity (Vbinding) (COX2 T564A; 20 uM): 12.382 nM/min and 16.697 nM/min and 16.993 nM/min
- binding velocity (Vbinding) (COX2 T564A; 100 uM): 28.376 nM/min and 29.582 nM/min and 24.951 nM/min
- binding velocity (Vbinding) (COX2 T564A; 200 uM): 37.587 nM/min and 41.759 nM/min and 47.017 nM/min

Reference: article PMC7217877, “N-AS-triggered SPMs are direct regulators of microglia in a model of Alzheimer’s disease” (Nature Communications, 2020)
